This note sets out measurements from US20160052955A1, “[…] INHIBITORS FOR TREATING CANCERS” (SLOAN-KETTERING INSTITUTE FOR CANCER RESEARCH, priority 2013, published 2016).

One may read the IC50 as the concentration needed to halve the response being measured.

Like-named read-outs stand apart in the source and are kept apart here.

What all share (assay type): biochemical
Test [1] has as its target T1, GLP1 (951-1235) (Homo sapiens, UniProt Q9H9B1).
T1 construct: GLP1 (951-1235)
T1 sequence (Q9H9B1 982-1266): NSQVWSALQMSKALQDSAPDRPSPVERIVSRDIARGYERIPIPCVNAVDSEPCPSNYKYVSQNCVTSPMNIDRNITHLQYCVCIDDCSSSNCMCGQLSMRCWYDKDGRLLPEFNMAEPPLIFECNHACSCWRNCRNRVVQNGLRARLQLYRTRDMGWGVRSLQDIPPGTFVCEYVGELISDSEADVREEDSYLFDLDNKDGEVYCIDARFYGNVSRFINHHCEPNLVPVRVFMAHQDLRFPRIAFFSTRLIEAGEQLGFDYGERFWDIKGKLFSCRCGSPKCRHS
As to the kind of experiment: Filter-paper methyltransferase assay, GLP1. The conditions noted are these: substrate H3 (1-21 aa), 10 nM enzyme, 1 h. As to the method: (§1) Methylation Reaction. The 20 μL methylation reaction was carried out at ambient temperature using two mixtures: A. 10 μl of enzyme mixture in the assay buffer containing 50 mM Hepes (pH=8.0), 0.005% Tween-20, 5 μg/ml BSA and 1 mM TCEP; B. 10 μl of a mixture of […], 0.15 μCi [^3H-Me]-SAM cofactor and 3 μM of the corresponding peptide substrate in the same assay buffer. After A and B were mixed for a designated time period, the reaction mixture was examined with our filter-paper assay.
(§2) Filter-paper Assay. This assay relies on Whatman P-81 filter paper, which binds peptides but not SAM. Protein Methyl Transferases (PMTs) transfer ^3H-Me of [^3H-Me]-SAM to peptide substrates and the resultant ^3H-methylated, filter-paper-bound peptide is quantified with a scintillation counter. Briefly, 6 μl of the methylation reaction was spotted onto Whatman P-81 phosphocellulose filter paper (1.2×1.2 cm^2) to immobilize the ^3H-labeled peptide. After drying in air for 20 min, the filter paper was immersed into 20 mL of 50 mM Na2CO3/NaHCO3 buffer (pH=9.2), and washed 5 times for 10 min each time. The washed filter paper was then transferred to a 20 ml scintillation vial containing 1 mL of distilled water and 10 mL of Ultima Gold scintillation cocktail or 7 mL scintillation vial containing 0.5 mL od distilled water and 5 mL of scintillation cocktail (PerkinElmer). The radioactivity was quantified by a Beckman LS6000IC liquid scintillation counter.
(§3) Dose-response Curves and IC50. Twice the PMT concentration was incubated for 10 min with varied concentration of inhibitors (0.1-400 μM stocks), into which 10 μl of the PMT peptide substrate and radioactive cofactor (3 μM of the corresponding peptide and 1.5 μM, 0.15 μCi [^3H-Me]-SAM) were added. After incubating the reaction mixture for the respective reaction time, the conversion was quantified with the filter paper assay as described above. The inhibition was expressed as the percentage between the high control (no inhibition) and the low control (no enzyme) as follows: Percentage Inhibition=[(high control−reading)/(high control−low control)]×100%. Each experiment was performed in triplicate. The IC50 values were obtained by fitting inhibition percentage versus inhibitor concentration using GraphPad Prism5 software.

In test [2] the target is T2, SET7/9 Full-length (Homo sapiens, UniProt Q8WTS6).
T2 construct: SET7/9 Full-length
T2 sequence (Q8WTS6 1-366): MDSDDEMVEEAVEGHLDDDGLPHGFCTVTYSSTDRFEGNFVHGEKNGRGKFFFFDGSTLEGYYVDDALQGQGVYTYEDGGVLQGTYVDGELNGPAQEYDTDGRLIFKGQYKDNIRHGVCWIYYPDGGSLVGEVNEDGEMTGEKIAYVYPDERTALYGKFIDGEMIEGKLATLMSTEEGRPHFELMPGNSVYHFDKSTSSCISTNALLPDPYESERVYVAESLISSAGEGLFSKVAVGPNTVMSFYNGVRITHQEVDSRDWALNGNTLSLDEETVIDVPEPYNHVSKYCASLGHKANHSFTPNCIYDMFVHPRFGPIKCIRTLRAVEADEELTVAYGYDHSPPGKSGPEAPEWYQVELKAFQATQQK
Briefly: Filter-paper methyltransferase assay, SET7/9. The conditions noted are these: substrate H3 (1-21 aa), 150 nM enzyme, 3 h.

Test [3] addresses T3, SET8 (191-352) (Homo sapiens, UniProt Q9NQR1).
T3 construct: SET8 (191-352)
T3 sequence (Q9NQR1 191-352 isoform Q9NQR1-2): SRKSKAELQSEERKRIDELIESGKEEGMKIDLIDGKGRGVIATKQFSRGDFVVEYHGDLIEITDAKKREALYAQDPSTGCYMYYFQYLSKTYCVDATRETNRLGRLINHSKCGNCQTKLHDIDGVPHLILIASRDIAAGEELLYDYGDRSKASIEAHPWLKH
Briefly: Filter-paper methyltransferase assay, SET8. As to conditions: substrate H4 (10-30 aa), 1000 nM enzyme, 8 h.

For test [4], the target named is T4, PRMT3 (211-531) (Homo sapiens, UniProt O60678).
T4 construct: PRMT3 (211-531)
T4 sequence (O60678 211-531): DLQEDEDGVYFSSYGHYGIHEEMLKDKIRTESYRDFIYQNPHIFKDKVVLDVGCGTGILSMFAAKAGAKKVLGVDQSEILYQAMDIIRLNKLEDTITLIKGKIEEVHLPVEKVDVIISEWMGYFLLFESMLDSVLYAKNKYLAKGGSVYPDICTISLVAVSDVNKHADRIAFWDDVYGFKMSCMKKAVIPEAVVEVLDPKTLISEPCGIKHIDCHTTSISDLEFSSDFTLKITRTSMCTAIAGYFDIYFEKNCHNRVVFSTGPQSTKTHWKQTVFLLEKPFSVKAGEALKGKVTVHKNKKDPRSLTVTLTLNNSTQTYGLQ
Briefly: Filter-paper methyltransferase assay, PRMT3. The conditions noted are these: substrate RGG, 100 nM enzyme, 3 h; read-out: IC50 PRMT3.

Test [5] addresses T5, SUV39H2 (112-410) (Homo sapiens, UniProt Q9H5I1).
T5 construct: SUV39H2 (112-410)
As to the kind of experiment: Filter-paper methyltransferase assay, SUV39H2. The conditions noted are these: substrate H3 (1-21 aa), 5 nM enzyme, 4 h; read-out: IC50 SUV39H2.

Test [6] concerns the target T6, CARM1 (19-608) (Homo sapiens, UniProt Q86X55).
T6 construct: CARM1 (19-608)
T6 sequence (Q86X55 19-608): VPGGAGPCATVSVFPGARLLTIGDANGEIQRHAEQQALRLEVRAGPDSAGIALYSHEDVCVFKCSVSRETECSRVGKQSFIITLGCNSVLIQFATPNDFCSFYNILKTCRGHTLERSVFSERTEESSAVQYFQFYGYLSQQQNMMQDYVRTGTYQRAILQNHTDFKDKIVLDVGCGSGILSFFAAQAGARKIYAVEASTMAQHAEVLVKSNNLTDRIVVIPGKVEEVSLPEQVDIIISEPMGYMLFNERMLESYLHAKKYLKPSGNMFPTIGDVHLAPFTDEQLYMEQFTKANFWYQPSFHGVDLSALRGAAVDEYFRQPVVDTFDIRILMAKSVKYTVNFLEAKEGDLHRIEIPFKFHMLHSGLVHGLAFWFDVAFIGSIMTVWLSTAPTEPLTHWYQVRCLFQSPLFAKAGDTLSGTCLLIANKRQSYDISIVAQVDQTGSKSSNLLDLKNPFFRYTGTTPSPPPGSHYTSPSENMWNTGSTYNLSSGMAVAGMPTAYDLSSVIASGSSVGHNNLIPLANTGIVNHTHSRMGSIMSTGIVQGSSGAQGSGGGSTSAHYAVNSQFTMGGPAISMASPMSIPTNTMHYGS
Briefly: Filter-paper methyltransferase assay, CARM1.

In test [7] the target is T7, SMYD2 Full-length (Homo sapiens, UniProt Q9NRG4).
T7 construct: SMYD2 Full-length
T7 sequence (Q9NRG4 whole entry): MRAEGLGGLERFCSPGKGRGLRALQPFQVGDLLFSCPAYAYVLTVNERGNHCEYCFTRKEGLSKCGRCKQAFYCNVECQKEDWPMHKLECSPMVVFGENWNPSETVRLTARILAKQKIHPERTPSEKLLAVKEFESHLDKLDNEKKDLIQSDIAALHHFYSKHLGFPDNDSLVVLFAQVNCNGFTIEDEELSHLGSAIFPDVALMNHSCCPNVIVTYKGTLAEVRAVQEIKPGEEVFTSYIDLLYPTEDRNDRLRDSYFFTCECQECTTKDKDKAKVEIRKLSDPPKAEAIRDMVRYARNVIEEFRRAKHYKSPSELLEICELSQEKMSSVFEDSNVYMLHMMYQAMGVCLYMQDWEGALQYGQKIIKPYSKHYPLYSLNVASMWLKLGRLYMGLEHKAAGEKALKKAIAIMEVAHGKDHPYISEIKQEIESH
As to the kind of experiment: Filter-paper methyltransferase assay, SMYD2. As to conditions: substrate p53 (360-393 aa), 50 nM enzyme, 10 h; read-out: IC50 SMYD2-FL. On the procedure:
as §1, §2, §3

Test [8] deals with DOT1L (Homo sapiens, UniProt Q8TEK3). Briefly: Filter-paper methyltransferase assay, DOT1L. As to conditions: for IC50: substrate nucleosomes, 50 nM enzyme, 6 h.
DOT1L, sequence (Q8TEK3 whole entry): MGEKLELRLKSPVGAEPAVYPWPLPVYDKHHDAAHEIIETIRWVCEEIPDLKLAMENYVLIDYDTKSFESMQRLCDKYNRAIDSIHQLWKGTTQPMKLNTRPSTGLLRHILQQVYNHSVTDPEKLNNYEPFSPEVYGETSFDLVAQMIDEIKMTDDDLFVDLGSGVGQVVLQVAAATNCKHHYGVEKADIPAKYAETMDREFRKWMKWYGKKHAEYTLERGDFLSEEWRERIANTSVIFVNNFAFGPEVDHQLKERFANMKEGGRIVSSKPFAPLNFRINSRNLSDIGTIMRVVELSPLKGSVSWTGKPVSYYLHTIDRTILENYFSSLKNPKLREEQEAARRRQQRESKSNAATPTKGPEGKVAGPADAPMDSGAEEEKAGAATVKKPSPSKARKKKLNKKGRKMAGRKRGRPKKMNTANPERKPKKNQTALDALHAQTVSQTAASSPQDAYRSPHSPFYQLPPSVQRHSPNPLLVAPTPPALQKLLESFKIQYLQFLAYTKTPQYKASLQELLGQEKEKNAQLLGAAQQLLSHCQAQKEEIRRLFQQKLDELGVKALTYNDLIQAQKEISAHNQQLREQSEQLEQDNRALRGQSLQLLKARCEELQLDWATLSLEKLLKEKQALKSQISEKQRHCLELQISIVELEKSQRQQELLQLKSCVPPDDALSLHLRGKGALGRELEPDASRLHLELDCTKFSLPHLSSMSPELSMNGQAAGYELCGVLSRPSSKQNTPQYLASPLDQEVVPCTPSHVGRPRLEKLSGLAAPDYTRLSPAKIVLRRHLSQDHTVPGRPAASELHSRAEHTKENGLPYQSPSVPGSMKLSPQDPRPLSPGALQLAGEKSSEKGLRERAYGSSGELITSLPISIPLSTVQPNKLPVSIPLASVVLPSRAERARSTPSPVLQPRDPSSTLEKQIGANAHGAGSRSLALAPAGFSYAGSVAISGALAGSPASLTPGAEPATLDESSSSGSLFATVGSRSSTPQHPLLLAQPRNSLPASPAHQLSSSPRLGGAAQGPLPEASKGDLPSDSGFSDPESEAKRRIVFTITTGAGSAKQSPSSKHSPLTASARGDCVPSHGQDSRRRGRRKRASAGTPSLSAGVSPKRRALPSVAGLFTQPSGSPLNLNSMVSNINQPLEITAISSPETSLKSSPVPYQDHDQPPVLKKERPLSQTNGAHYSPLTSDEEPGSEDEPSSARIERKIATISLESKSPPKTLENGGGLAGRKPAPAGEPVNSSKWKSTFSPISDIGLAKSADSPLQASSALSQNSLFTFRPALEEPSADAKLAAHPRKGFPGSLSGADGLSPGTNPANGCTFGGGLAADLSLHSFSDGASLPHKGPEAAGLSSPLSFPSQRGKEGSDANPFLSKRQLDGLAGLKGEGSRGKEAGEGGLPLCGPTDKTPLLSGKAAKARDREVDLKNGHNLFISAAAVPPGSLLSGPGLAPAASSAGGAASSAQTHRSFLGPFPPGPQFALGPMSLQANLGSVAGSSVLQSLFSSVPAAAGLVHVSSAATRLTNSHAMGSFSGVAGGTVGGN
The target of test [9] is T8, G9a (913-1913) (Homo sapiens, UniProt Q96KQ7).
T8 construct: G9a (913-1913)
T8 sequence (Q96KQ7 913-1193 limits assumed): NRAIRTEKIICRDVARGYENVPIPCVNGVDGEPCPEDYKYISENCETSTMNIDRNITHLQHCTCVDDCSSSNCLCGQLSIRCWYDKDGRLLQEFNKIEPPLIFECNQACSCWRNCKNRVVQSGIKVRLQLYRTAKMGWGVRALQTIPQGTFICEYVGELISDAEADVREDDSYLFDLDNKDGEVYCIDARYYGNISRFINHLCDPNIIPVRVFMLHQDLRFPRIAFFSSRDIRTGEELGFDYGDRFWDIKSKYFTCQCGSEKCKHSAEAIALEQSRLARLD
As to the kind of experiment: Filter-paper methyltransferase assay, G9a. As to conditions: substrate H3 (1-21 aa), 20 nM enzyme, 1 h.

In test [10] the target is T9, PRMT1 (10-352) (Homo sapiens, UniProt Q99873).
T9 construct: PRMT1 (10-352)
T9 sequence (Q99873 10-352 isoform Q99873-3): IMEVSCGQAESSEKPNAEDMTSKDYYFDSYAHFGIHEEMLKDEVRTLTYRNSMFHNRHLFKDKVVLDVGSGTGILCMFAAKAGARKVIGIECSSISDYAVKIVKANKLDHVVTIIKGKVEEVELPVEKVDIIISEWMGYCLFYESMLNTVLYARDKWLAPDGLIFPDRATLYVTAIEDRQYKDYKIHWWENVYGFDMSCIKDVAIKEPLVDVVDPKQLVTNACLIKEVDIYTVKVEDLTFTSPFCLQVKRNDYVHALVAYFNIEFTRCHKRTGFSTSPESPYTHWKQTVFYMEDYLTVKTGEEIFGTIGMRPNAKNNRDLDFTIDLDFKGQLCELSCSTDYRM
As to the kind of experiment: Filter-paper methyltransferase assay, PRMT1. The conditions noted are these: 100 nm enzyme, substrate RGG, 1.5 h.

Test [11] concerns the target T10, SETDB1Full-length (Homo sapiens, UniProt Q15047).
T10 construct: SETDB1Full-length
As to the kind of experiment: Filter-paper methyltransferase assay, SETDB1. As to conditions: substrate H3 (1-21 aa), 7.5 nM enzyme, 15 h; read-out: IC50 SETDB1-FL.

The target in test [12] is T11, SMYD3 (Homo sapiens, UniProt Q9H7B4).
T11 sequence (Q9H7B4 1-428): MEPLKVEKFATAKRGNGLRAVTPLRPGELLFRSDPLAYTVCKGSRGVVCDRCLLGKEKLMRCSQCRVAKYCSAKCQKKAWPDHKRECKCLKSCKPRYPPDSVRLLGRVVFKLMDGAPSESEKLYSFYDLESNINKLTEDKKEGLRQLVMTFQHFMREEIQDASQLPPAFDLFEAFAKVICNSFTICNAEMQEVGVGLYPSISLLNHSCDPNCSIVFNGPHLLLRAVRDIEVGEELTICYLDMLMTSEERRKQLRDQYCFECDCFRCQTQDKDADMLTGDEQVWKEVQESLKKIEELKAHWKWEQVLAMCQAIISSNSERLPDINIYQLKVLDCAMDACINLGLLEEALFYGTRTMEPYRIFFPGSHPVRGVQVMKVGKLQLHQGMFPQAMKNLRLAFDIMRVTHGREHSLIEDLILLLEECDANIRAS
As to the kind of experiment: Filter-paper methyltransferase assay, SMYD3. The conditions noted are these: substrate MAP3K2 (1-350 aa), 125 nM enzyme, 2 h. On the procedure: as §1
Filter-paper Assay. This assay relies on Whatman P-81 filter paper, which binds peptides but not SAM. Protein Methyl Transferases (PMTs) transfer ^3H-Me of [^3H-Me]-SAM to peptide substrates and the resultant ^3H-methylated, filter-paper-bound peptide is quantified with a scintillation counter. […] The radioactivity was quantified by a Beckman LS6000IC liquid scintillation counter.
Dose-response Curves and IC50. […] After incubating the reaction mixture for the respective reaction time, the conversion was quantified with the filter paper assay as described above. The inhibition was expressed as the percentage between the high control (no inhibition) and the low control (no enzyme) as follows: Percentage Inhibition=[(high control−reading)/(high control−low control)]×100%. […]

Setting [13] is: substrate H3 (1-40 aa), 300 nM enzyme, 7 h, read-out: IC50 CARM1.

T5 sequence (Q9H5I1 112-410): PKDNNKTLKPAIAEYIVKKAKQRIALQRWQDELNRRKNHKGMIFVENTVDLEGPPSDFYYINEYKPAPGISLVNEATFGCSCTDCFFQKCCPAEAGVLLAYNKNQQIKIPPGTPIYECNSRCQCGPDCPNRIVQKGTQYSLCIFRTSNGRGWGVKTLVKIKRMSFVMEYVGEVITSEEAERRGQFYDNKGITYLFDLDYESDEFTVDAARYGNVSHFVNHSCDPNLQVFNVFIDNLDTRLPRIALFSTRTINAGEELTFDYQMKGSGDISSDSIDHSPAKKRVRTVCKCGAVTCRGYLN

On to `Nc1ncnc2c1ncn2[C@@H]1O[C@H](C[C@@H](N)CC[C@H](N)C(=O)O)[C@@H](O)[C@H]1O` [Sinefungin, sinefungin, reference compound], for which the IC50 was 32 µM in [1]; 1140 nM in [2]; over 100 µM in [3]; 28.2 µM in test [4]; 4.58 µM in test [5]; 440 nM in test [6]. For the same compound, the IC50 is 0.22 µM in [7] and 53400 nM in test [8].
`CC(C)(C)c1ccc(NC(=O)NCCC[C@H](N)C[C@H]2O[C@@H](n3cnc4c(N)ncnc43)[C@H](O)[C@@H]2O)cc1` [Example 27]: the IC50 is over 100 µM in [9]; over 100 µM in test [1]; over 100 µM in test [10]; 35.4 µM in [4]; over 100 µM in test [5]; 100 nM in test [6] (setting [13]). The half-maximal inhibitory concentration (IC50) was about 100 µM in [7], about 100 µM in test [11] and 140 nM in test [8]. In addition, in test [6], the “inhibitory activity to CARM1 (in words)” value is “remarkable inhibitory activity”. Besides, the “inhibitory activity to DOT1L (in words)” value in [8] was “remarkable inhibitory activity”.
As to `CC(C)(C)c1ccc(NC(=O)NCCC[C@H](CN)C[C@H]2O[C@@H](n3cnc4c(N)ncnc43)[C@@H](O)C2O)cc1` (stereo partly drawn) [Example 28], the IC50 was over 100 µM in test [9]; over 100 µM in test [1]; over 100 µM in [10]; over 50 µM in test [4]; over 100 µM in [5]; 730 nM in [6] (setting [13]). The concentration for half-maximal inhibition (IC50) in [7] was over 100 µM; in test [12], over 100 µM; in [8], 70 nM. Further, in test [6], the “inhibitory activity to CARM1 (in words)” value was “remarkable inhibitory activity”. Also, the “inhibitory activity to DOT1L (in words)” value in test [8] is reported as “remarkable inhibitory activity”.
